Results reported in patent publication US20250027956A1, “Improved Gamma-Secretase Inhibitor Screening Assays” (VIB VZW, priority 2021, published 2025).

How the values were obtained:
LE/Ly cholesterol = conditions: cited from earlier work
WT MEFs = assay: Lysosomal Ca2+ content, Fura-2AM loaded cells challenged with GPN, WT cells; format: cell-based, mouse
Description: Cells were treated with the following drugs, usually for 4 days, unless otherwise stated: DAPT (2634/10, Tocris) 1 μM final; Inhibitor X (565771-250 μg, Calbiochem/Merck) 1 μM final; β-Secretase Inhibitor IV (565788, Calbiochem/Merck) 2 μM final, (2-Hydroxypropyl)-γ-cyclodextrin (H125-5G-I, Sigma Aldrich) 1 mM final; Adam 10 inhibitor G1254023X (SML0789, Sigma Aldrich) 3 μM final. For OSW-1 (30310-1, Sanbio/Cayman Chemical), cells were treated overnight with 10 nM. Diluent treatment alone (in most cases DMSO, water for the cyclodextrin) was used as vehicle control.
Cytosolic response: Ca2+ responses were measured as previously described in Coen et al 2012. Briefly, cells (0.005 to 0.01×106) were seeded two to three days prior to the experiment on glass coverslips (631-0153, VWR). On the day of recording, cells were rinsed three times in Ringer solution (155 mM NaCl, 5 mM KCl, 2 mM MgCl2, 2 mM CaCl2, 10 mM Glucose, 10 mM HEPES, 2 mM NaH2PO4·2H20; pH 7.3), and loaded 1 μM Fura2-AM (F1221, ThermoFisher Scientific) for 30 min (RT). Cells were rinsed three times and left to equilibrate for at least 15-20 min (RT). All acquisitions were carried out in Ringer Ca2+ free solution (same as above, albeit the 2 mM CaCl2 were replaced by 2 mM EGTA). During experiments, cells were challenged with different drugs, such as Thapsigargin (T7459, ThermoFisher Scientific, 1 μM final), GPN (ab145914, abcam, 100 μM final for MEFs, 500 μM for neurons), MLSA1 (Cat. No. 4746, Tocris, 20 μM final) or lonomycin (10634, Sigma Aldrich, 1 μM final). Images were acquired every 5 sec for 8-10 min, using an Olympus IX81 using an UAPO/340 40× oil objective (1.35 NA), operated by CellR Software (Olympus). Recordings were done using 340 and 380 nm excitation, and 530 nm emission filters. Image processing was performed using Image J Software (Schindelin et al 2012; Schneider et al 2012). Briefly, cells were segmented manually and fluorescence intensities were measured over time. Fura-2 signals were corrected to obtain ΔF/F0 (F0 being the initial signal recorded). For each cell, the area under the curve, corresponding to the aforementioned stimulation, was measured using GraphPad Prism.

NPC disease models = conditions: cited from earlier work
PSENdKO cells [1] = assay: Confocal immunofluorescence (compartment size, Mander's colocalization, filipin) in PSENdKO cells; format: cell-based, mouse
Description: For OSW-1 (30310-1, Sanbio/Cayman Chemical), cells were treated overnight with 10 nM. Diluent treatment alone (in most cases DMSO, water for the cyclodextrin) was used as vehicle control. KO cell lines: PSEN1 and 2 KO cell lines (PSENdKO) cell lines were established as described in ([…] al 2020). Briefly, the web-based CRISPR design tool was used to select the sequence to be targeted in mouse PSEN1 and PSEN2 ([NT] and [NT], respectively). Oligo pairs encoding guide sequences (obtained from Integrated DNA Technologies, IDT) were annealed and ligated into the pX330 plasmid (Addgene) according to the Zhang's laboratory protocol (https://www.addgene.org/crispr/zhang/). MEF cells were then transfected with the pX330-PSEN1 and PX330-PSEN2, using Fugene HD (Promega), in accordance with the manufacturer protocol. Selection of PSENdKO clones was achieved through serial dilution and confirmed by WB analysis. Further depletion of APP in different PSENdKO clones was achieved through electroporation of RNP complexes. Single guide RNA (sgRNAs) were designed to either target exon 2 ([NT]) or exon 3 ([NT]). The Neon Transfection System (ThermoFisher Scientific, one pulse, 1650 V, 20 ms) was used to electroporate 150 000 cells with 10 pmol of Cas 9 (IDT) and 20 pmol of single guide RNA (IDT). As above, cells were amplified and selection of independent APPKO clones was performed with serial dilutions and WB characterization. All clones of interest were sequenced using Sanger sequencing. […] Primary antibodies diluted in the same blocking buffer were incubated overnight at 4° C. Following PBS washing steps, (goat- or donkey-) secondary antibodies conjugated with Alexa fluor dyes (Alexa 488, 568, or 647, all ThermoFisher Scientific) diluted in the blocking buffer were incubated for 1 h, RT. Coverslips were then mounted with Mowiol (Sigma). When cholesterol labelling was performed, fixed cells were treated with 200 μg·ml-1 filipin (F4767, Sigma) for 2 h at RT, prior to permeabilization. Acquisition: Z stack images (spacing 2 μm), or a median plan were acquired on a Nikon 1AR connected to an inverse Nikon Ti-2000 equipped with an oil-immersion plan APO 60× objective lenses with 1.40 NA. Data were collected using Nikon Imaging Software. […] Image analysis: All image analysis was done using Image J software (Schindelin et al 2012; Schneider et al 2012). To measure the area of the organelle of interest (early endosomes-EEA1; lysosomes-Lamp1; retromer-VPS35 . . . ), segmentation was realized using automatic thresholding. The following masks were used: Mean (EEA1), Ostu (Lamp1), Intermodes (VPS35). Overlap of signal of interests were quantified with Manders colocalisation index (Plugin Jacob, (Bolte and Cordelieres 2006)). When indicated, co-localization data was normalized to the reference group for multiple comparisons.

[2] = test system: NPC1−/− neural stem cells; conditions: cited from earlier work
[3] = test system: cultured skin fibroblasts of NPC patients; conditions: cited from earlier work
PSENdKO cells [4] = assay: Lysosomal Ca2+ content, Fura-2AM loaded cells challenged with GPN, PSENdKO cells; format: cell-based, mouse; parameters: lysosomal Ca2+ content: dose or concentration left out as unconfirmed
Excerpt: Diluent treatment alone (in most cases DMSO, water for the cyclodextrin) was used as vehicle control.
Briefly, the web-based CRISPR design tool was used to select the sequence to be targeted in mouse PSEN1 and PSEN2 (i.e. 5′-[…]-3′ and 5′-[…]-3′, respectively). Oligo pairs encoding guide sequences (obtained from Integrated DNA Technologies, IDT) were annealed and ligated into the pX330 plasmid (Addgene) according to the Zhang's laboratory protocol (https://www.addgene.org/crispr/zhang/). MEF cells were then transfected with the pX330-PSEN1 and PX330-PSEN2, using Fugene HD (Promega), in accordance with the manufacturer protocol. Selection of PSENdKO clones was achieved through serial dilution and confirmed by WB analysis. Further depletion of APP in different PSENdKO clones was achieved through electroporation of RNP complexes. […]
Cells were rinsed three times and left to equilibrate for at least 15-20 min (RT). […] Briefly, cells were segmented manually and fluorescence intensities were measured over time. Fura-2 signals were corrected to obtain ΔF/F0 (F0 being the initial signal recorded). For each cell, the area under the curve, corresponding to the aforementioned stimulation, was measured using GraphPad Prism.

Npc1-null cells = conditions: cited from earlier work
Npc1 mice = conditions: oral; cited from earlier work
cats = conditions: cited from earlier work
NPC patients = conditions: clinical trials; cited from earlier work
Npc1 cats = conditions: intrathecal 120 mg every 2 weeks; cited from earlier work
[5] = overnight, 10 nM, data not shown

[O-][n+]1cccc(/C(Cl)=N/OC[C@H](O)CN2CCCCC2)c1 [arimoclomol]
clearance of cholesterol from LE/Ly (LE/Ly cholesterol): same effect

C=CCNC1=C2C[C@@H](C)C[C@H](OC)[C@H](O)[C@@H](C)/C=C(\C)[C@H](OC(N)=O)[C@@H](OC)/C=C\C=C(/C)C(=O)NC(=CC1=O)C2=O [17-AAG]
clearance of cholesterol from LE/Ly (LE/Ly cholesterol): clearance of cholesterol from LE/Ly

CO/C1=C\C(C)=C\[C@@H](C)[C@@H](O)[C@@H](C)C/C(C)=C/C=C/[C@H](OC)[C@@H]([C@@H](C)[C@@H](O)[C@H](C)[C@@]2(O)C[C@@H](O)[C@H](C)[C@@H](C(C)C)O2)OC1=O [bafilomycin1]
lysosomal Ca2+ content (WT MEFs; full alkalinization, compared with PSENdKO cells): equally affected lysosomal Ca2+ content as observed in PSENdKO cells

CC(/C=C/C(=O)NO)=C\[C@@H](C)C(=O)c1ccc(N(C)C)cc1 [trichostatin A]
cholesterol accumulation (NPC disease models): efficiently correct cholesterol accumulation

Cc1ccc(NC(=O)c2ccc(CN3CCN(C)CC3)cc2)cc1Nc1nccc(-c2cccnc2)n1 [Imatinib]
APP-CTFs in VPS35-positive organelles (PSENdKO cells [1]): significant decrease of APP-CTFs in VPS35-positive organelles
VPS35-LAMP1 co-localization (PSENdKO cells [1]; vs DMSO): lowered VPS35-LAMP1 co-localization

Nc1ccc(C(=O)Nc2cccc(-c3nc(N4CCOCC4)c4oc5ncccc5c4n3)c2)cn1 [YM201636]
Lysosomal Ca2+ levels (WT MEFs; WT cells, 2 μM, 2 h, 100 μM GPN): reduced

CCc1cc(C(N)=O)ccc1-n1nc(C(C)C)c2c(-n3cnc(-c4cnn(C)c4)c3)ccnc21 [TAS-116]
clearance of cholesterol from LE/Ly (LE/Ly cholesterol): clearance of cholesterol from LE/Ly

CCCC(CCC)C(=O)O [Valproic acid]
benefit in NPC1−/− neural stem cells [2]: some benefit

CCNC(=O)c1noc(-c2cc(C(C)C)c(O)cc2O)c1-c1ccc(CN2CCOCC2)cc1 [AUY922]
clearance of cholesterol from LE/Ly (LE/Ly cholesterol): clearance of cholesterol from LE/Ly

Cc1[nH]c2ccccc2c1CCNCc1ccc(/C=C/C(=O)NO)cc1 [LBH589]
cholesterol accumulation (NPC disease models): efficiently correct cholesterol accumulation

O=C(CCCCCCC(=O)Nc1ccccc1)NO [Vorinostat, suberanilohydroxamic acid]
accumulation of lipids in the lysosomes [3]: reduces the accumulation of lipids in the lysosomes

CC1(C)CC(=O)c2c(C(F)(F)F)nn(-c3ccc(C(N)=O)c(N[C@H]4CC[C@H](O)CC4)c3)c2C1 [SNX2112]
clearance of cholesterol from LE/Ly (LE/Ly cholesterol): clearance of cholesterol from LE/Ly

CC(C)c1cc(C(=O)N2Cc3ccc(CN4CCN(C)CC4)cc3C2)c(O)cc1O [AT13387]
clearance of cholesterol from LE/Ly (LE/Ly cholesterol): clearance of cholesterol from LE/Ly

CC(C)C[C@H](NC(=O)[C@H](Cc1ccccc1)C[C@@H](O)[C@H](Cc1ccccc1)NC(=O)OC(C)(C)C)C(=O)N[C@@H](Cc1ccccc1)C(N)=O [InhibitorX]
lysosomal Ca2+ content (WT MEFs; WT cells, 1 μM, 4 days, normalized to DMSO): reduced

CC(C)c1cc(-c2n[nH]c(=O)n2-c2ccc3c(ccn3C)c2)c(O)cc1O [Ganetespib]
clearance of cholesterol from LE/Ly (LE/Ly cholesterol): clearance of cholesterol from LE/Ly

COc1ccc(C(=O)O[C@H]2[C@H](O[C@@H]3[C@@H](OC(C)=O)[C@H](O[C@H]4C[C@H]5[C@@H]6CC=C7C[C@@H](O)CC[C@]7(C)[C@H]6CC[C@]5(C)[C@@]4(O)[C@H](C)C(=O)CCC(C)C)OC[C@@H]3O)OC[C@@H](O)[C@@H]2O)cc1 [OSW-1]
lysosomal Ca2+ dysfunction (PSENdKO cells [4]; [5]): nor did it rescue lysosomal Ca2+ dysfunction
lysosomal cholesterol staining (PSENdKO cells [1]; [5]): did not decrease lysosomal cholesterol staining

2-hydroxypropyl-γ-cyclodextrin [HPγCD]
lysosomal Ca2+ content (PSENdKO cells [4]; 4 days): fully restored lysosomal Ca2+ content
EEA1 area (PSENdKO cells [1]; 1 mM, 4 days): reduced EEA1 area
accumulation of membrane-tethered APP fragments in Lamp1-positive LE/Lys (PSENdKO cells [1]; 1 mM, 4 days): strongly reduced
colocalization of VPS35 with Lamp1 (PSENdKO cells [1]; 1 mM, 4 days): decreased colocalization of VPS35
filipin staining in Lamp1-positive LE/Lys (PSENdKO cells [1]; 1 mM, 4 days): Reduced filipin staining
intracellular free cholesterol levels and lysosome changes (Npc1-null cells): reduce intracellular free cholesterol levels and normalize the lysosome changes

CCCCN1C[C@H](O)[C@@H](O)[C@H](O)[C@H]1CO [Miglustat, N-butyl-deoxynojirimycin]
accumulation of gangliosides in the brain (Npc1 mice): reduced the accumulation of gangliosides in the brain
increase of lifespan (Npc1 mice): approximately 33%
neurological progression of the disease (Npc1 mice): slowed the neurological progression of the disease
accumulation of gangliosides in the brain (cats): reduced accumulation of gangliosides in the brain
increase of lifespan (cats): approximately 74%
onset of neurological symptoms (cats): delayed onset of neurological symptoms
neurological outcome (e.g. dysphagia, supranuclear gaze palsy) (NPC patients): neurological improvement or stabilization

2-Hydroxypropyl-beta-cyclodextrin [HP-beta-CD]
neurological dysfunction and lipid accumulation in neurons (Npc1 cats): reduced neurological dysfunction and lipid accumulation in neurons
